Like-named read-outs stand apart in the source and are kept apart here.
Experiments:
[1] = test system: HCV (J399E) inserted with enhanced green fluorescent protein (EGFP); assay: microbe, parasite or virus in culture; type: cell-based, Hepatitis C Virus; conditions: for IC50: read-out: IC50 (concentration at which 50% of the replication of HCV was inhibited); for SI (bioactivity selective index): from CC50 and IC50 in Huh7.5.1 cells, SI greater than 2 means effective
Description: The in vitro anti-HCV activity assay of the 2′,2-bis-thiazole non-nucleoside compounds at cellular level was performed by using an anti-HCV activity assay protocol recognized by one skilled in the art.
The variation of the green fluorescence intensity was recorded on a microplate reader and cytotoxicity was measured at the same time, so as to evaluate the influence of the compound on the replication activity of HCV.
(§1) Compounds to be tested were dissolved in DMSO to prepare a stock solution before the test. Upon using, the stock solution was diluted to a desired concentration with DMEM (Dulbecco's Modified Eagle Media, purchased from GibcoBRL company (Life Technologies, Grand Island, N.Y., USA)) containing 10% FBS (fetal bovine serum, purchased from Hyclone company (Logan, Utah, USA)).
Positive control: ribavirin (purchased from Sigma/Aldrich). It was dissolved in DMSO to prepare a stock solution and stored at −20° C. before use, and diluted to a desired concentration upon using.
(§2) Huh7.5.1 cells (10% FBS, DMEM) at 10^5 cells/ml were inoculated on a 96-well plate (Costar 3904) with 100 μl per well. 24 h later, the supernatant of the culture media was sucked out, and 50 μl of virus supernatant with MOI=0.1 was added. 8 h later, 50 μl of the testing compound solution was added and 100 μl of culture media was supplemented. After incubation for 72 h, the supernatant was sucked out, and read on a fluorescent microplate reader (Ex=488 nm, Em=516 nm). Then each well was added with 20 μl of MTT (5 mg/ml) and additional 50 μl of culture media. 4 h later, 100 μl of MTT lysis solution was added. 6 h later, reading was performed at a wavelength of 570 nm.

[2] = test system: Huh7.5.1 cells; assay: in vitro; type: cell-based
Description: (§3) The anti-HCV activity assay was performed by using Huh7.5.1 cells (presented by WUHAN INSTITUTE of VIROLOGY, CHINESE ACADEMY OF SCIENCES) infected by HCV (J399E) inserted with enhanced green fluorescent protein (EGFP). The variation of the green fluorescence intensity was recorded on a microplate reader and cytotoxicity was measured at the same time, so as to evaluate the influence of the compound on the replication activity of HCV.
as §1, with “USA)). The final concentration of DMSO for cell culture was less than 0.25% (V/V, Volume to Volume), and such DMSO concentration would not affect the growth of cells.” for “USA)).”
as §2

[3] = in vitro; type: cell-based; conditions: human
Description: as §3
as §1, with “USA)). The final concentration of DMSO for cell culture was less than 0.25% (V/V, Volume to Volume), and such DMSO concentration would not affect the growth of cells.” for “USA)).”
as §2

[4] = HCV (J399E)-EGFP infected Huh7.5.1 cells, MOI=0.1, 72 h incubation
[5] = Hepatitis C virus, Huh-7.5.1, 72 h

| SMILES | IC50 [1, 4] | CC50 [2] | IC50 [1, 5] | SI (bioactivity selective index) [1] | CC50 at 72 h [3] |
| --- | --- | --- | --- | --- | --- |
| CC(C)Cc1sc(-c2nccs2)nc1C(N)=O [Compound C267] | 4.9 µM | > 100 µM | – | – | – |
| CCC(=O)c1nc(-c2nccs2)sc1CC(C)C [Compound C280-4] | 8.9 µM | > 100 µM | – | – | – |
| CNC(=O)c1nc(-c2nccs2)sc1CC(C)C [Compound C281] | 13.6 µM | > 100 µM | – | – | – |
| CCC(O)c1nc(-c2nccs2)sc1CC(C)C (centres unmarked) [Compound C282-2] | – | – | 2.8 µM | >35.7 | > 100 µM |
| O=C(O)c1nc(-c2nccs2)sc1Cc1ccccc1 [Compound C302] | 25.7 µM | 67.5 µM | – | – | – |
| CCOC(=O)/C=C/c1nc(-c2nccs2)sc1CC(C)C [Compound C322-2] | 9.8 µM | > 100 µM | – | – | – |
| CCOC(=O)CCc1nc(-c2nccs2)sc1CC(C)C [Compound C324-5] | 36.6 µM | > 100 µM | – | – | – |
| CC(C)Cc1sc(-c2nccs2)nc1C(=O)Nc1ccccc1 [Compound C343] | 19.1 µM | > 100 µM | – | – | – |
| CC(C)Cc1sc(-c2nccs2)nc1C(=O)NCc1ccccc1 [Compound C357] | – | – | 2.8 µM | >11.9 | > 33.3 µM |
| CC(C)Cc1sc(-c2nccs2)nc1CNC(=O)c1nc(-c2nccs2)sc1CC(C)C [Compound C503] | – | – | 1.4 µM | >71 | > 100 µM |
| CC(C)Cc1sc(-c2nccs2)nc1C(=O)NCc1ccc(F)cc1 [Compound W28F] | – | – | 7.5 µM | 4.9 | 36.9 µM |
| Cc1cnc(-c2nc(C(=O)NCc3ccc(F)cc3)c(CC(C)C)s2)s1 [Compound W28MF] | – | – | 0.8 µM | >125 | > 100 µM |
| NC(=O)c1ncn([C@@H]2O[C@H](CO)[C@@H](O)[C@H]2O)n1 [ribavirin, reference compound] | – | – | 48.3 µM | 9.3 | 449 µM |
